Measured values taken from patent US11370798B2 (Vertex Pharmaceuticals Incorporated, priority 2012, dated 2022).

Test system: HCT116 colorectal cancer cells
Experiment: Cisplatin sensitization assay (96 h cell viability MTS);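 note: Test-compound concentration that lowers the Cisplatin IC50 by a set fold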
Format: cell-based
Settings: compound and Cisplatin added simultaneously, Cisplatin sensitization value
Summary of the method: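 Viability read by MTS (1 h at 37° C) after 96 h co-exposure at 37° C, 5% CO2. Test compound and cisplatin were dosed simultaneously in a full concentration matrix, each 2-fold serially diluted from 10 μM final; sensitization values binned in μM.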

Row | SMILES | Cisplatin Sensitization Assay
1 | CS(=O)(=O)C1CCN(c2c(F)cncc2NC(=O)c2c(N)nn3cc(F)cnc23)CC1 [I-N-165, 2-amino-6-fluoro-N-(5-fluoro-4-(4-(methylsulfonyl)piperidin-1-yl)pyridin-3-yl)pyrazolo[1,5-a]pyrimidine-3-carboxamide] | +++ (Cisplatin sensitization value of <0.02 μM)
2 | CN1CCN(S(=O)(=O)C2CCN(c3c(F)cncc3NC(=O)c3c(N)nn4cc(F)cnc34)CC2)CC1 [I-N-166, 2-amino-6-fluoro-N-(5-fluoro-4-(4-((4-methylpiperazin-1-yl)sulfonyl)piperidin-1-yl)pyridin-3-yl)pyrazolo[1,5-a]pyrimidine-3-carboxamide] | +++ (Cisplatin sensitization value of <0.02 μM)
3 | Nc1nn2cc(F)cnc2c1C(=O)Nc1cncc(F)c1N1CCC(OCCN2CCCC2)CC1 [I-N-167, 2-amino-6-fluoro-N-(5-fluoro-4-(4-(2-(pyrrolidin-1-yl)ethoxy)piperidin-1-yl)pyridin-3-yl)pyrazolo[1,5-a]pyrimidine-3-carboxamide] | +++ (Cisplatin sensitization value of <0.02 μM)
4 | Nc1nn2cc(F)cnc2c1C(=O)Nc1cncc(F)c1N1CCN(C(=O)C2CNC2)CC1 [I-N-168, 2-amino-N-(4-(4-(azetidine-3-carbonyl)piperazin-1-yl)-5-fluoropyridin-3-yl)-6-fluoropyrazolo[1,5-a]pyrimidine-3-carboxamide] | + (Cisplatin sensitization value>0.2 μM but <5 μM)
5 | Nc1nn2cc(F)cnc2c1C(=O)Nc1cncc(F)c1N1CCC(S(=O)(=O)N2CCC2)CC1 [I-N-169, 2-amino-N-(4-(4-(azetidin-1-ylsulfonyl)piperidin-1-yl)-5-fluoropyridin-3-yl)-6-fluoropyrazolo[1,5-a]pyrimidine-3-carboxamide] | +++ (Cisplatin sensitization value of <0.02 μM)
6 | Nc1nn2cc(F)cnc2c1C(=O)Nc1cnccc1N1CCC(S(=O)(=O)N2CCOCC2)CC1 [I-N-170, 2-amino-6-fluoro-N-(4-(4-(morpholinosulfonyl)piperidin-1-yl)pyridin-3-yl)pyrazolo[1,5-a]pyrimidine-3-carboxamide] | +++ (Cisplatin sensitization value of <0.02 μM)
7 | CN1CCN(CC2CCN(c3c(F)cncc3NC(=O)c3c(N)nn4cc(F)cnc34)CC2)CC1=O [I-N-171, 2-amino-6-fluoro-N-(5-fluoro-4-(4-((4-methyl-3-oxopiperazin-1-yl)methyl)piperidin-1-yl)pyridin-3-yl)pyrazolo[1,5-a]pyrimidine-3-carboxamide] | +++ (Cisplatin sensitization value of <0.02 μM)
8 | Nc1nn2cc(F)cnc2c1C(=O)Nc1cncc(F)c1N1CCN(C(=O)C2CNCCO2)CC1 (centres unmarked) [I-N-172, 2-amino-6-fluoro-N-(5-fluoro-4-(4-(morpholine-2-carbonyl)piperazin-1-yl)pyridin-3-yl)pyrazolo[1,5-a]pyrimidine-3-carboxamide] | +++ (Cisplatin sensitization value of <0.02 μM)
9 | CN1CCCCC1C(=O)N1CCN(c2c(F)cncc2NC(=O)c2c(N)nn3cc(F)cnc23)CC1 (centres unmarked) [I-N-173, 2-amino-6-fluoro-N-(5-fluoro-4-(4-(1-methylpiperidine-2-carbonyl)piperazin-1-yl)pyridin-3-yl)pyrazolo[1,5-a]pyrimidine-3-carboxamide] | +++ (Cisplatin sensitization value of <0.02 μM)
10 | CN1CCOC(C(=O)N2CCN(c3c(F)cncc3NC(=O)c3c(N)nn4cc(F)cnc34)CC2)C1 (centres unmarked) [I-N-174, 2-amino-6-fluoro-N-(5-fluoro-4-(4-(4-methylmorpholine-2-carbonyl)piperazin-1-yl)pyridin-3-yl)pyrazolo[1,5-a]pyrimidine-3-carboxamide] | +++ (Cisplatin sensitization value of <0.02 μM)
11 | CN1CCC(S(=O)(=O)N2CCN(c3c(F)cncc3NC(=O)c3c(N)nn4cc(F)cnc34)CC2)CC1 [I-N-175, 2-amino-6-fluoro-N-(5-fluoro-4-(4-((1-methylpiperidin-4-yl)sulfonyl)piperazin-1-yl)pyridin-3-yl)pyrazolo[1,5-a]pyrimidine-3-carboxamide] | +++ (Cisplatin sensitization value of <0.02 μM)
12 | Nc1nn2cc(F)cnc2c1C(=O)Nc1cnccc1N1CCN(S(=O)(=O)C2CC2)CC1 [I-N-176, 2-amino-N-(4-(4-(cyclopropylsulfonyl)piperazin-1-yl)pyridin-3-yl)-6-fluoropyrazolo[1,5-a]pyrimidine-3-carboxamide] | +++ (Cisplatin sensitization value of <0.02 μM)
13 | Nc1nn2cc(F)cnc2c1C(=O)Nc1cnccc1N1CCN(S(=O)(=O)C2CCOCC2)CC1 [I-N-177, 2-amino-6-fluoro-N-(4-(4-((tetrahydro-2H-pyran-4-yl)sulfonyl)piperazin-1-yl)pyridin-3-yl)pyrazolo[1,5-a]pyrimidine-3-carboxamide] | +++ (Cisplatin sensitization value of <0.02 μM)
14 | CS(=O)(=O)N1CCN(c2ccncc2NC(=O)c2c(N)nn3cc(F)cnc23)CC1 [I-N-178, 2-amino-6-fluoro-N-(4-(4-(methylsulfonyl)piperazin-1-yl)pyridin-3-yl)pyrazolo[1,5-a]pyrimidine-3-carboxamide] | +++ (Cisplatin sensitization value of <0.02 μM)
15 | Nc1nn2cc(F)cnc2c1C(=O)Nc1cnccc1N1CCN(S(=O)(=O)C2CCOC2)CC1 (centres unmarked) [I-N-179, 2-amino-6-fluoro-N-(4-(4-((tetrahydrofuran-3-yl)sulfonyl)piperazin-1-yl)pyridin-3-yl)pyrazolo[1,5-a]pyrimidine-3-carboxamide] | +++ (Cisplatin sensitization value of <0.02 μM)
16 | CN1CCC[C@@H]1C(=O)N1CCN(c2c(F)cncc2NC(=O)c2c(N)nn3cc(F)cnc23)CC1 [I-N-181, (R)-2-amino-6-fluoro-N-(5-fluoro-4-(4-(1-methylpyrrolidine-2-carbonyl)piperazin-1-yl)pyridin-3-yl)pyrazolo[1,5-a]pyrimidine-3-carboxamide] | +++ (Cisplatin sensitization value of <0.02 μM)
17 | Nc1nn2cc(F)cnc2c1C(=O)Nc1cncc(F)c1N1CCN2C(=O)CC[C@@H]2C1 [I-N-182, (R)-2-amino-6-fluoro-N-(5-fluoro-4-(6-oxohexahydropyrrolo[1,2-a]pyrazin-2(1H)-yl)pyridin-3-yl)pyrazolo[1,5-a]pyrimidine-3-carboxamide] | ++ (Cisplatin sensitization value>0.02 μM but <0.2 μM)
18 | CN1CCOC2(CCN(c3ccncc3NC(=O)c3c(N)nn4cc(F)cnc34)CC2)C1 [I-N-183, 2-amino-6-fluoro-N-(4-(4-methyl-1-oxa-4,9-diazaspiro[5.5]undecan-9-yl)pyridin-3-yl)pyrazolo[1,5-a]pyrimidine-3-carboxamide] | +++ (Cisplatin sensitization value of <0.02 μM)
19 | Nc1nn2cc(F)cnc2c1C(=O)Nc1cncc(F)c1N1CCC(c2nccs2)CC1 [I-N-184, 2-amino-6-fluoro-N-(5-fluoro-4-(4-(thiazol-2-yl)piperidin-1-yl)pyridin-3-yl)pyrazolo[1,5-a]pyrimidine-3-carboxamide] | ++ (Cisplatin sensitization value>0.02 μM but <0.2 μM)
20 | CCN1CCCC1C(=O)N1CCN(c2c(F)cncc2NC(=O)c2c(N)nn3cc(F)cnc23)CC1 (centres unmarked) [I-N-185, 2-amino-N-(4-(4-(1-ethylpyrrolidine-2-carbonyl)piperazin-1-yl)-5-fluoropyridin-3-yl)-6-fluoropyrazolo[1,5-a]pyrimidine-3-carboxamide] | ++ (Cisplatin sensitization value>0.02 μM but <0.2 μM)
